Assay results reported in patent publication US11401278B2, “Macrocyclic indole derivatives” (The Broad Institute, Inc., priority 2017, dated 2022).
Where a name gives a salt, the structure may show the parent alone.

Legend:
MCL-1 = MCL-1 (Homo sapiens (Human), UniProt Q07820, K194A/K197A/R201A); assay: Protein-protein interaction assay MCL-1/Noxa BH3 peptide (MCL-1 assay, TR-FRET); format: binding; details: MBP-MCL-1 / Noxa BH3 peptide, median
How it was run: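 TR-FRET competition assay read at 665/620 nm, with a Noxa BH3 tracer peptide (1 nM) plus Eu-cryptate anti-MBP and XL665-streptavidin. Compounds (0.1 nM-20 μM, duplicates) were pre-equilibrated 10 min at 22° C with 1 nM MBP-MCL-1 (173-329) in Tris pH 7, NaCl, KF, DTT buffer, then incubated 1 h at 22° C and overnight at 4° C. IC50 came from 4-parameter regression.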

SUDHL5 [1] = assay: Induction of caspase-3/7 activity (Assay 4), SUDHL5; format: cell-based; details: caspase-3/7 induction, 3 hours, median
How it was run: (§1)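 DLBCL cells were exposed to compounds for 3 hours at 37 °C, then caspase-3/7 activation was read with Caspase-Glo 3/7 reagent. After subtracting medium-only background, EC50s were derived with fixed C0=1 and the reference compound's maximal induction as plateau.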

SUDHL10 [2] = assay: Induction of caspase-3/7 activity (Assay 4), SUDHL10; format: cell-based; details: caspase-3/7 induction, 3 hours, median
How it was run: as §1

SUDHL5 [3] = assay: Antiproliferation assay (Assay 7), SUDHL5; format: cell-based; details: CellTiter-Glo, 72 hours, median, read-out: Antiproli SUDHL5 [M] (median) IC50
How it was run: (§2)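 Plate cells in treatment and day 0 reference plates; read day 0 plate with CellTiter-Glo after 10 min; incubate treated plates 72 h at 37° C; read them identically.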

HMC-1-8 = assay: Antiproliferation assay (Assay 7), HMC-1-8; format: cell-based; details: CellTiter-Glo, 72 hours, several values per example, read-out: Antiproli HMC-1-8 [M] IC50
How it was run: as §2

SK-MEL-2 = assay: Antiproliferation assay (Assay 7), SK-MEL-2; format: cell-based; details: CellTiter-Glo, 72 hours, median, read-out: Antiproli SK-MEL-2 [M] median IC50
Procedure: (§3) Assessment of the Anti-Proliferative Effect of Compounds in Different Cell Lines
(§4) The impact of compounds on the proliferation of different cell lines was assessed using the CellTiter-Glo® Luminescent Cell Viability reagent from Promega (G7573).
(§5) In parallel, cells were plated in a reference (day 0) plate for time zero determination.
(§6) Rim wells were excluded. The cells were incubated for 72 hours in a humidified incubator at 37° C. The day 0 plate was measured by adding 30 μL/well of CTG solution (CellTiter-Glo® Luminescent Cell Viability reagent, Promega G7573) to time zero wells in the reference plate followed by a 10 minutes incubation and luminescence reading at 0.1 ms. using the PHERAstar FS microplate reader (BMG Labtech).
(§7) After 72 hours incubation, the treated plates were measured in the same way as the day 0 plate mentioned above.

SNU-16 = assay: Antiproliferation assay (Assay 7), SNU-16; format: cell-based; details: CellTiter-Glo, 72 hours, median, read-out: Antiproli SNU-16 [M] median IC50
Procedure: as §3, §4, §5, §6, §7

A-431 = assay: Antiproliferation assay (Assay 7), A-431; format: cell-based; details: CellTiter-Glo, 72 hours, median, read-out: Antiproli A-431 [M] median IC50
Procedure: as §3, §4, §5, §6, §7

PA-1 = assay: Antiproliferation assay (Assay 7), PA-1; format: cell-based; details: CellTiter-Glo, 72 hours, median, read-out: Antiproli PA-1 [M] median IC50
Procedure: as §3, §4, §5, §6, §7

DM-S114 = assay: Antiproliferation assay (Assay 7), DM-S114; format: cell-based; details: CellTiter-Glo, 72 hours, median, read-out: Antiproli DM-S114 [M] median IC50
Procedure: as §3, §4, §5, §6, §7

SUDHL5 [4] = assay: Induction of cytotoxicity (Assay 6), SUDHL5; details: read-out: Cytotox SUDHL5 [M] (median) IC50, CellTiter-Glo, 5 hours, SUDHL5
SUDHL10 [5] = assay: Induction of cytotoxicity (Assay 6), SUDHL10; details: read-out: Cytotox SUDHL10 [M] (median) IC50, CellTiter-Glo, 5 hours, SUDHL10
Procedure: Assay 6 Induction of Cytotoxicity Upon Treatment of Cells with Selected Compounds
Therefore, cytotoxicity assays were run in parallel in SUDHL5 and SUDHL10 cells.
The different cell lines were plated in culture medium (RPMI 1640 [GIBCO #22400-089] supplemented with 10% Fetal Bovine Serum) at a density of 3,300 cells in 30 μl/well in a sterile, solid black, flat bottom, polystyrene, TC-treated 384-well microplate (Corning #3571) using Multidrop Combi Reagent Dispenser. As a control, medium without cells was also added to the plate. Cells were incubated in a humidified incubator at 37° C. overnight. On the next day, the cells were treated with compounds (stock solution, 10 mM in DMSO) using the HP D300 Digital Dispenser in a concentration range of 3.3×10e-5 M (33 μM) to 5×10e-9 M (5 nM) in a single-dot curve with at least 16 dilutions and a DMSO concentration of 0.33%. Rim wells were excluded. The cells were incubated for 5 hours in a humidified incubator at 37° C. After this incubation, 30 μl of CellTiter-Glo® Luminescent Cell Viability reagent (Promega, G7573) was added to each well using the Multidrop Combi Reagent Dispenser, followed by 15 minutes incubation on a shaker at room temperature. Finally, luminescence was read at 0.1 ms, with a gain of 3000 using the PHERAstar FS microplate reader (BMG Labtech).

Chain of MCL-1 (Q07820 whole entry K194A/K197A/R201A, looked up): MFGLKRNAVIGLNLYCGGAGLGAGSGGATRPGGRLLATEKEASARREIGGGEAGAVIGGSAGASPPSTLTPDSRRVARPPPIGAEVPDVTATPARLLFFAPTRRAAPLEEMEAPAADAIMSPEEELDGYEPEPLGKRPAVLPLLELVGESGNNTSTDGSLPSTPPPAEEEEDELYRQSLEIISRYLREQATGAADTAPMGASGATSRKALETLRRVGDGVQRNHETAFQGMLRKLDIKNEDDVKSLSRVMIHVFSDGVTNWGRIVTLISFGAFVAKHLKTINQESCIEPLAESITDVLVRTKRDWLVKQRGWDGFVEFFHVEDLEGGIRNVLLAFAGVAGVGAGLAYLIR

Compound `CCc1c2c(nn1C)C(CCN1CCOCC1)N(C)S(=O)(=O)CCCn1c(C(=O)O)c(CCCOc3cccc4cc(F)ccc34)c3ccc(Cl)c-2c31` (single isomer, unassigned; enantiomer 1) [Example 75, 4-chloro-3-ethyl-7-{3-[(6-fluoronaphthalen-1-yl)oxy]propyl}-2,14-dimethyl-15-[2-(morpholin-4-yl)ethyl]-13,13-dioxo-10,11,12,13,14,15-hexahydro-2H-13lambda^6-pyrazolo[3′,4′:4,5][1,2,8]thiadiazacycloundecino[6,7,8-hi]indole-8-carboxylic acid-N-ethylethanamine Salt (Enantiomer 1)] has an IC50 (MCL-1) of 0.15 µM, an EC50 (SUDHL5 [1]) of 11 µM and an EC50 (SUDHL10 [2]) of 35 µM. The IC50 (SUDHL5 [3]) was 1.4e-05 M, the IC50 (HMC-1-8) was greater than 3.3e-05 M and the IC50 (SK-MEL-2) was 4.64e-07 M. The IC50 (SNU-16) was 1.26e-07 M, the IC50 (A-431) was 3.24e-07 M and the IC50 (PA-1) was 3.2e-08 M. It also gave an IC50 (DM-S114) of 3.66e-08 M, an IC50 (SUDHL5 [4]) of 1.6e-05 M and an IC50 (SUDHL10 [5]) of 1.6e-05 M.
